Assay results taken from patent publication US20240350506A1, “PREPARATION OF HISTONE DEACETYLASE INHIBITOR, AND PREPARATION METHOD THEREFOR AND USE THEREOF” (CHENGDU ZENITAR BIOMEDICAL TECHNOLOGY CO., LTD., priority 2021, published 2024).
Structures can show the parent of a compound that is named as a salt. Where two headings read alike, the source gives them in different places.

How the values were obtained:
[1] = system: Human Burkitt's lymphoma Daudi cell lines; assay: Pharmacodynamic experiment on subcutaneously transplanted tumor, Daudi, in NOD/SCID mice; assay type: in vivo; conditions: 10 mg/kg i.v. three times a week (LBH589 dose), female NOD/SCID mice, day 32
Protocol: Establishment of subcutaneously transplanted tumor model: Human Burkitt's lymphoma Daudi cell lines were in vitro cultured in RPMI-1640 medium containing 10% fetal bovine serum, 100 U/mL penicillin, and 100 μg/mL streptomycin. The cells in logarithmic growth phase were selected, and washed three times with PBS buffer under sterile conditions. The single cell suspension was diluted with PBS buffer to 2×10^8 cells/mL for future use. […], 0.1 mL of single cell suspension was taken, and then subcutaneously inoculated into the back of female NOD/SCID mice with a weight of >20 g. Grouping and treatment: When the volume of the tumor reached 100-200 mm^3 or above (the measurement and calculation method of tumor volume (TV): TV (mm^3)=a×b2×π/6, wherein a and b represent the longest diameter and the shortest diameter (mm), respectively), tumor-bearing mice with excessive or insufficient tumor volumes would be eliminated, and qualified animals were randomly divided into groups.
Experimental endpoint and analysis indicators: Example 5 of the present invention was administered 14 times, and the experiment was terminated on the 32nd day after the first treatment. The analysis indicators are:
(2) Determination of tumor weight and calculation of tumor inhibition rate (%)
When the experiment was terminated, the animals was euthanized according to the operating procedures of animal experiments, and dissected to collect the tumor mass, which was then weighted. The tumor inhibition rate (%) was calculated according to the following formula: […]
(3) Animal survival and weight changes during the experimental process.

[2] = system: Human multiple myeloma RPMI-8226 cell lines; assay: Pharmacodynamic experiment on subcutaneously transplanted tumor, RPMI-8226, in NOD/SCID mice; assay type: in vivo; conditions: 10 mg/kg i.v. three times a week; female NOD/SCID mice, day 32
Protocol: Establishment of subcutaneously transplanted tumor model: […] The cells in logarithmic growth phase were selected, and washed three times with PBS buffer under sterile conditions. The single cell suspension was diluted with PBS buffer to 7×10^7 cells/mL for future use. Prior to seeding, 0.1 mL of single cell suspension was taken, and then subcutaneously inoculated into the back of female NOD/SCID mice with a weight of >20 g. Grouping and treatment: When the volume of the tumor reached 100-200 mm^3 or above (the measurement and calculation method of tumor volume (TV): TV (mm^3)=a×b2×π/6, wherein a and b represent the longest diameter and the shortest diameter (mm), respectively), tumor-bearing mice with excessive or insufficient tumor volumes would be eliminated, and qualified animals were randomly divided into groups. […] “B” means Bortezomib; “D” means Dexamethasone; “L” means Lenalidomide. Experimental endpoint and analysis indicators: Example 5 of the present invention was administered 14 times, and the experiment was terminated on the 32nd day after the first treatment. The analysis indicators are: (2) Determination of tumor weight and calculation of tumor inhibition rate (%) When the experiment was terminated, according to the operating procedures of animal experiments, the animals was euthanized and dissected to collect the tumor mass, which was then weighted. The tumor inhibition rate (%) was calculated according to the following formula: [formula] (3) Animal survival and weight changes during the experimental process.

[3] = Phase solubility of PM in cyclodextrins (HP-β-CD, SBE-β-CD); assay type: physicochemical; conditions: API saturated; for Storing at 4° C. for one day: cell wraps ('sediment')
Protocol: (§1) According to the pH guidance standard for injection, the optimal pH range for injection was 4-9.
Then, excess PM raw materials were added and dissolved under ultrasound until saturation. A clear saturated solution was filtered out over a 0.22 μm membrane and transferred into a centrifuge tube. The concentration (mg/mL) and purity (%) of dissolved PM raw materials were detected by HPLC, and then, whether there was drug precipitation was observed using a clarity detector after being stored in a refrigerator at 4° C. in dark for one day.

[4] = Phase solubility of PM in in-situ basic salt-forming agents (arginine, meglumine); assay type: physicochemical; conditions: API saturated; for solubility thermodynamic: aqueous with cosolvent or surfactant or cyclodextrin, thermodynamic from solid, read-out: Drug concentration
Protocol: as §1
Then, excessive PM raw materials were added and dissolved under ultrasound until saturation. A clear saturated solution was filtered out over a 0.22 μm membrane and transferred into a centrifuge tube. The concentration (mg/mL) and purity […] of dissolved PM raw materials were detected by HPLC, and then, whether there was drug precipitation was observed using a clarity detector after being stored in a refrigerator at 4° C. in dark for one day.

With `Cc1[nH]c2ccccc2c1CCNCc1ccc(/C=C/C(=O)NO)cc1` [LBH589] the “Animal numbers End/Begining” value [1] was 7/7, the “Tumor inhibition rate (%)” value [1] was 76.92% and the “Weight of tumor mass X ± SD” value ([1]; in g (unit assumed)) was 0.83 ± 0.38. For the same compound, the “Animal number End/Beginning” value [2] was 6/6, the “Tumor inhibition rate (%)” value [2] was 59.79% and the “Tumor weight (g) X ± SD” value [2] was 0.90 ± 0.37 g.
With `CN(Cc1nc2c(N3CCOCC3)nc(-c3ccc(N)cc3)nc2n1C)c1ncc(C(=O)NO)cn1` [API, purinostat mesylate] the “Drug concentration” value ([3]; HP-β-CD 5% (M/V)) was 1850 µg/mL, the “Drug purity (%)” value ([3]; HP-β-CD 5% (M/V)) was 99.21% and the pH values ([3]; HP-β-CD 5% (M/V)) was 2.42. For the same compound, the “Storing at 4° C. for one day” value ([3]; HP-β-CD 5% (M/V)) was “Trace”, the “Drug concentration” value ([3]; HP-β-CD 10% (M/V)) was 2020 µg/mL and the “Drug purity (%)” value ([3]; HP-β-CD 10% (M/V)) was 99.15%. For the same compound, the pH values ([3]; HP-β-CD 10% (M/V)) was 2.54, the “Storing at 4° C. for one day” value ([3]; HP-β-CD 10% (M/V)) was “Trace” and the “Drug concentration” value ([3]; HP-β-CD 15% (M/V)) was 3160 µg/mL. The “Drug purity (%)” value ([3]; HP-β-CD 15% (M/V)) was 99.08%, the pH values ([3]; HP-β-CD 15% (M/V)) was 2.55 and the “Storing at 4° C. for one day” value ([3]; HP-β-CD 15% (M/V)) was “Trace”. For the same compound, the “Drug concentration” value ([3]; HP-β-CD 20% (M/V)) was 4130 µg/mL, the “Drug purity (%)” value ([3]; HP-β-CD 20% (M/V)) was 98.96% and the pH values ([3]; HP-β-CD 20% (M/V)) was 2.67. The “Storing at 4° C. for one day” value ([3]; HP-β-CD 20% (M/V)) was “Trace”, the “Drug concentration” value ([3]; HP-β-CD 25% (M/V)) was 4520 µg/mL and the “Drug purity (%)” value ([3]; HP-β-CD 25% (M/V)) was 98.24%. For the same compound, the pH values ([3]; HP-β-CD 25% (M/V)) was 2.7, the “Storing at 4° C. for one day” value ([3]; HP-β-CD 25% (M/V)) was “Trace” and the “Drug concentration” value ([3]; SBE-β-CD 5% (M/V)) was 930 µg/mL. The “Drug purity (%)” value ([3]; SBE-β-CD 5% (M/V)) was 99.78%, the pH value ([3]; SBE-β-CD 5% (M/V)) was 3.77 and the “Storing at 4° C. for one day” value ([3]; SBE-β-CD 5% (M/V)) was “Trace”. The “Drug concentration” value ([3]; SBE-β-CD 10% (M/V)) was 1180 µg/mL, the “Drug purity (%)” value ([3]; SBE-β-CD 10% (M/V)) was 99.01% and the pH value ([3]; SBE-β-CD 10% (M/V)) was 3.71. The “Storing at 4° C. for one day” value ([3]; SBE-β-CD 10% (M/V)) was “Trace”, the “Drug concentration” value ([3]; SBE-β-CD 15% (M/V)) was 1800 µg/mL and the “Drug purity (%)” value ([3]; SBE-β-CD 15% (M/V)) was 99.35%. For the same compound, the pH value ([3]; SBE-β-CD 15% (M/V)) was 3.67, the “Storing at 4° C. for one day” value ([3]; SBE-β-CD 15% (M/V)) was “Trace” and the “Drug concentration” value ([3]; SBE-β-CD 20% (M/V)) was 2220 µg/mL. The “Drug purity (%)” value ([3]; SBE-β-CD 20% (M/V)) was 99.35%, the pH value ([3]; SBE-β-CD 20% (M/V)) was 3.64 and the “Storing at 4° C. for one day” value ([3]; SBE-β-CD 20% (M/V)) was “Trace”. The “Drug concentration” value ([3]; SBE-β-CD 25% (M/V)) was 2610 µg/mL, the “Drug purity (%)” value ([3]; SBE-β-CD 25% (M/V)) was 99.17% and the pH value ([3]; SBE-β-CD 25% (M/V)) was 3.57. For the same compound, the “Storing at 4° C. for one day” value ([3]; SBE-β-CD 25% (M/V)) was “Trace”, the solubility thermodynamic ([4]; 1‰ (M/V) arginine solution in UP water, Arginine 1‰) was 50 µg/mL and the solubility thermodynamic ([4]; 1‰ (M/V) meglumine solution in UP water, Meglumine 1‰) was 130 µg/mL. For the same compound, the solubility thermodynamic ([4]; 3‰ (M/V) arginine solution in UP water, Arginine 3‰) was 110 µg/mL, the solubility thermodynamic ([4]; 3‰ (M/V) meglumine solution in UP water, Meglumine 3‰) was 240 µg/mL and the solubility thermodynamic ([4]; 5‰ (M/V) arginine solution in UP water, Arginine 5‰) was 170 µg/mL. For the same compound, the solubility thermodynamic ([4]; 5‰ (M/V) meglumine solution in UP water, Meglumine 5‰) was 350 µg/mL, the solubility thermodynamic ([4]; 8‰ (M/V) arginine solution in UP water, Arginine 8‰) was 280 µg/mL and the solubility thermodynamic ([4]; 8‰ (M/V) meglumine solution in UP water, Meglumine 8‰) was 460 µg/mL. For the same compound, the solubility thermodynamic ([4]; 10‰ (M/V) arginine solution in UP water, Arginine 10‰) was 370 µg/mL, the solubility thermodynamic ([4]; 10‰ (M/V) meglumine solution in UP water, Meglumine 10‰) was 700 µg/mL and the “Drug purity (%)” value ([4]; Arginine 1‰) was 100%. The pH value ([4]; Arginine 1‰) was 8.87, the “Drug purity (%)” value ([4]; Arginine 3‰) was 100% and the pH value ([4]; Arginine 3‰) was 9.30. The “Drug purity (%)” value ([4]; Arginine 5‰) was 100%, the pH value ([4]; Arginine 5‰) was 9.61 and the “Drug purity (%)” value ([4]; Arginine 8‰) was 98.97%. For the same compound, the pH value ([4]; Arginine 8‰) was 9.76, the “Drug purity (%)” value ([4]; Arginine 10‰) was 99.24% and the pH value ([4]; Arginine 10‰) was 9.84. For the same compound, the “Drug purity (%)” value ([4]; Meglumine 1‰) was 100%, the pH value ([4]; Meglumine 1‰) was 9.65 and the “Drug purity (%)” value ([4]; Meglumine 3‰) was 99.80%. The pH value ([4]; Meglumine 3‰) was 9.98, the “Drug purity (%)” value ([4]; Meglumine 5‰) was 96.55% and the pH value ([4]; Meglumine 5‰) was 10.22. For the same compound, the “Drug purity (%)” value ([4]; Meglumine 8‰) was 99.45%, the pH value ([4]; Meglumine 8‰) was 10.41 and the “Drug purity (%)” value ([4]; Meglumine 10‰) was 99.07%. The pH value ([4]; Meglumine 10‰) was 10.42.
